Experimental data as given in patent US9174953B2, “Bicyclic thiazoles as allosteric modulators of mGluR5 receptors” (Janssen Pharmaceutica NV, priority 2009, dated 2015).

Experiments:
[1] = target: T1, human mGluR5 receptor (Homo sapiens, UniProt P41594); test: intracellular Ca2+ mobilization assay, potentiation of glutamate EC20 response (FDSS); type: cell-based; conditions: for Emax: HEK293, maximum % effect in concentration-response curve, relative to glutamate ECMax-treated wells, HEK-293 human mGluR5; for EC50: human mGluR5 stably expressed in HEK-293 cells, Fluo-4 AM, increase in glutamate EC20 (~0.2 μM) response
T1 construct: expressed in transfected cells
T1 sequence (P41594 21-1212): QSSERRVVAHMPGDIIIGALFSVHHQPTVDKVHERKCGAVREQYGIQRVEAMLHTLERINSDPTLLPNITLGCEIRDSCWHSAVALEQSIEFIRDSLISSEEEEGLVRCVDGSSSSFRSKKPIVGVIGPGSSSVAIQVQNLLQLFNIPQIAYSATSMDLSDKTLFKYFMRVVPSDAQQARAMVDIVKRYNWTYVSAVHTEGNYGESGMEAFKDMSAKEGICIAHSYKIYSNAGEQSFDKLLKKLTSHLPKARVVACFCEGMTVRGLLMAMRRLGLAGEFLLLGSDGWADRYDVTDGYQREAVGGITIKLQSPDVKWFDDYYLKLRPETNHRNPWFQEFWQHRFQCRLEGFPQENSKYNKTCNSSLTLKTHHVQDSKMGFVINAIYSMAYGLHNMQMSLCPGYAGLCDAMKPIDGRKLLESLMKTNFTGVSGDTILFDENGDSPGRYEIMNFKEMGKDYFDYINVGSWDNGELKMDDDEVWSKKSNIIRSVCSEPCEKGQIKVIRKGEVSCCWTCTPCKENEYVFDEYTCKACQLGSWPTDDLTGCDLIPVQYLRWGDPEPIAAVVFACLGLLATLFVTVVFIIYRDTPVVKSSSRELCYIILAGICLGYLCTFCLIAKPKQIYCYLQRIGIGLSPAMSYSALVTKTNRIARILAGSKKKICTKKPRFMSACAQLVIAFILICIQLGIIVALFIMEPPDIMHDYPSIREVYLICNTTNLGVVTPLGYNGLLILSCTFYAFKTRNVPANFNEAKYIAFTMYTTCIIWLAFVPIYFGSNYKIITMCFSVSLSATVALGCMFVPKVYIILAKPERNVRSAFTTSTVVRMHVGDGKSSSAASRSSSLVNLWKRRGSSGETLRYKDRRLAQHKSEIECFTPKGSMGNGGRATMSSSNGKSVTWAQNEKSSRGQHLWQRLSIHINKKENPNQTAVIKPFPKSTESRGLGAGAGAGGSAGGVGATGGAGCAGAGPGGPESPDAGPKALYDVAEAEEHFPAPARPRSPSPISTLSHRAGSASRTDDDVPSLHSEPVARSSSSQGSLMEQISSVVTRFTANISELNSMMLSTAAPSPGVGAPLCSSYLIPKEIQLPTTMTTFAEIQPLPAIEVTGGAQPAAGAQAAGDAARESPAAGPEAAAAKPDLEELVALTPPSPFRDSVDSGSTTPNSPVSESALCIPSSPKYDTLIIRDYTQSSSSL
Text: The compounds provided in the present invention are positive allosteric modulators of mGluR5. These compounds appear to potentiate glutamate responses by binding to an allosteric site other than the glutamate binding site. The response of mGluR5 to a concentration of glutamate is increased when compounds of Formula (I) are present. Compounds of Formula (I) are expected to have their effect substantially at mGluR5 by virtue of their ability to enhance the function of the receptor. The behaviour of positive allosteric modulators tested at mGluR5 using the intracellular Ca^2+ mobilization binding assay method described below and which is suitable for the identification of such compounds.
In brief, the human mGluR5 receptor was stably expressed in HEK-293 cells and grown at a density of 40,000 cells/well in PDL-coated 384-well plates. Cells were preloaded with the calcium-sensing dye Fluo-4 AM and various concentrations of test compound were added in the absence of exogenous glutamate to test for direct agonist activity. Shortly (2.5 min) thereafter, an EC20 equivalent of glutamate (˜0.2 μM) was added. The fluorescence signal was monitored using a Hamamatsu Functional Drug Screening System (FDSS) fluorescence plate reader following the addition of compound alone (direct agonist response) and then the further addition of an EC20 of glutamate (positive allosteric modulation response). The pEC50 was defined as the negative log of the test compound concentration which produced an increase in the glutamate EC20-mediated response that was 50% of maximum. Individual amplitudes were expressed as % effect by multiplying each amplitude by 100 and then dividing the product by the mean of the amplitudes derived from the glutamate ECMax-treated wells. Emax values reported in this application are defined as the maximum % effect obtained in a concentration-response curve.

| Emax [1] | EC50 [1] | melting point | SMILES |
| --- | --- | --- | --- |
| 100% | 0.0513 µM | 117.1 to 119.9 °C | O=C1CCCc2nc(C#Cc3ccccc3)sc21 [Compound 1, 5,6-dihydro-2-(phenylethynyl)-7(4H)-benzothiazolone] |
| 83% | 4.27 µM | 139.2 to 141.9 °C | O=C1CCCc2nc(C#Cc3cncc(F)c3)sc21 [Compound 2, 2-[(5-fluoro-3-pyridinyl)ethynyl]-5,6-dihydro-7(4H)-benzothiazolone] |
| 78% | 0.219 µM | 232.1 to 235.1 °C | O=C1NCCc2nc(C#Cc3ccccc3)sc21 [Compound 3, 6,7-dihydro-2-(phenylethynyl)-thiazolo[5,4-c]pyridin-4(5H)-one] |
| 79% | 0.0692 µM | 146.1 to 147.2 °C | CN1CCc2nc(C#Cc3ccccc3)sc2C1=O [Compound 4, 6,7-dihydro-5-methyl-2-(phenylethynyl)-thiazolo[5,4-c]pyridin-4(5H)-one] |
| 51% | 18.6 µM | – | O=C1CCCc2nc(CCc3ccccc3)sc21 [Compound 6, 5,6-dihydro-2-(2-phenylethyl)-7(4H)-benzothiazolone] |
| 11% | 5.01 µM | 260.3 to 264 °C | O=C1NCCCc2nc(-c3ccc(N4CCCCC4)nc3)sc21 [Compound 8] |
| 77% | 6.31 µM | 218.1 to 220.8 °C | CN1CCOc2cc(-c3nc4c(s3)C(=O)CCC4)ccc21 [Compound 9, 2-(4-methyl-3,4-dihydro-2H-1,4-benzoxazin-7-yl)-5,6-dihydro-1,3-benzothiazol-7(4H)-one] |
| 92% | 1.51 µM | 109.5 to 112 °C | O=C1CCCc2nc(C#Cc3cccnc3)sc21 [Compound 10, 5,6-dihydro-2-(3-pyridinylethynyl)-7(4H)-benzothiazolone] |
| 64% | 0.275 µM | 144.5 to 148.2 °C | COCCN1CCc2nc(C#Cc3ccccc3)sc2C1=O [Compound 11, 6,7-dihydro-5-(2-methoxyethyl)-2-(phenylethynyl)-thiazolo[5,4-c]pyridin-4 (5H)-one] |
| 90% | 0.468 µM | 141.5 to 152.5 °C | O=C1c2sc(C#Cc3ccccc3)nc2CCN1Cc1ccccc1 [Compound 12, 6,7-dihydro-2-(phenylethynyl)-5-(phenylmethyl)-thiazolo[5,4-c]pyridin-4(5H)-one] |
| – | – | 169.1 to 170.9 °C | O=C1c2sc(OCc3ccncc3)nc2CCN1c1ccc(F)cc1 [Compound 21] |
| – | – | 221.3 °C | O=C1c2sc(NCc3ccccc3)nc2CCN1c1ccc(F)cc1 [Compound 22] |
| – | – | 106 to 110 °C | O=C1c2sc(OCc3cccnc3)nc2CCN1c1ccc(F)cc1F [Compound 23] |
| – | – | 98.1 to 100.1 °C | O=C1c2sc(OCc3ccccn3)nc2CCN1c1ccc(F)cc1F [Compound 24] |
